Data taken from US20250353853A1, “FLAVIVIRUS INHIBITORS” (IRBM S.P.A., priority 2022, published 2025).
Where two headings read alike, the source gives them in different places.

Key:
[1] = biological target: West Nile Virus (WNV) NS2B-NS3 protease (West Nile virus (WNV), UniProt P06935); assay: WNV Protease Inhibition Assay; type: biochemical
Excerpt: WNV Protease Inhibition Assay

[2] = test system: ZIKV replicon in Vero cells; assay: ZIKV Replication Inhibition Assay (replicon, NanoLuc); conditions: Zika virus, Vero, 72 h, read-out: Zika Replicon EC50
[3] = 2 nM protease, 10 μM pERTKR-AMC substrate, read-out: WNV Protease IC50

Sequence of West Nile Virus (WNV) NS2B-NS3 protease (P06935 1502-1679 limits assumed): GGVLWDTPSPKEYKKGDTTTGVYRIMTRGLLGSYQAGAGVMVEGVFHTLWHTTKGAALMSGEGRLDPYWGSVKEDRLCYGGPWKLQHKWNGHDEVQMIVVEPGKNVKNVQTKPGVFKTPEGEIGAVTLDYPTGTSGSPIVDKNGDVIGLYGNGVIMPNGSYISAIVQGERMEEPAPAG
Sequence of West Nile Virus (WNV) NS2B-NS3 protease (P06935 1371-1501 partner limits assumed): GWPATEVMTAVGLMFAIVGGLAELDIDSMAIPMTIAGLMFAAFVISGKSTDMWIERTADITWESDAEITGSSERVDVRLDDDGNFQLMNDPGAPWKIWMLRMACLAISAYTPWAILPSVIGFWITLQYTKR

## COc1cc(-c2ccc(C[n+]3cc([N-]C(=O)Nc4cccc(C(F)(F)F)c4)on3)cc2)ccn1 [Example 63, (3-(4-(2-methoxypyridin-4-yl)benzyl)-1,2,3-oxadiazol-3-ium-5-yl)((3-(trifluoromethyl)phenyl)carbamoyl)amide]
[1]
  IC50: 100 to 1000 nM
[2]
  EC50: 100 to 1000 nM

## Cc1noc(C)c1-c1ccc(C[n+]2cc([N-]C(=O)Nc3cccc(C4CC4)c3)on2)nc1 [Example 142, ((3-cyclopropylphenyl)carbamoyl)(3-((5-(3,5-dimethylisoxazol-4-yl)pyridin-2-yl)methyl)-1,2,3-oxadiazol-3-ium-5-yl)amide]
[1]
  IC50: 100 to 1000 nM
[2]
  EC50: 100 to 1000 nM

## Cc1ncnc(C)c1-c1ccc(C[n+]2cc([N-]C(=O)Nc3ccnc(C(F)(F)F)c3)on2)nc1 [Example 176, (3-((5-(4,6-dimethylpyrimidin-5-yl)pyridin-2-yl)methyl)-1,2,3-oxadiazol-3-ium-5-yl)((2-(trifluoromethyl)pyridin-4-yl)carbamoyl)amide]
[1]; [3]
  IC50: < 100 nM
[2]
  EC50: 100 to 1000 nM

## O=C([N-]c1c[n+](Cc2ccc(-c3ccncc3F)cn2)no1)Nc1cccc(C(F)(F)F)c1 [Example 164, (3-((3′-fluoro-[3,4′-bipyridin]-6-yl)methyl)-1,2,3-oxadiazol-3-ium-5-yl)((3-(trifluoromethyl)phenyl)carbamoyl)amide]
[1]
  IC50: 100 to 1000 nM
[2]
  EC50: < 100 nM

## Cc1ncnc(C)c1-c1ccc([C@H](C)[n+]2cc([N-]C(=O)Nc3ccnc(C(F)(F)F)c3)on2)cc1 [Example 190, (S)-(3-(1-(4-(4,6-dimethylpyrimidin-5-yl)phenyl)ethyl)-1,2,3-oxadiazol-3-ium-5-yl)((2-(trifluoromethyl)pyridin-4-yl)carbamoyl)amide]
[1]
  IC50: < 100 nM
[2]
  EC50: 100 to 1000 nM

## Cc1cnn(C)c1-c1ccc(C[n+]2cc([N-]C(=O)Nc3cncc(C(F)(F)F)c3)on2)nc1 [Example 178, (3-((5-(1,4-dimethyl-1H-pyrazol-5-yl)pyridin-2-yl)methyl)-1,2,3-oxadiazol-3-ium-5-yl)((5-(trifluoromethyl)pyridin-3-yl)carbamoyl)amide]
[1]
  IC50: 100 to 1000 nM
[2]
  EC50: < 100 nM

## Cc1ncnc(C)c1-c1ccc(C[n+]2cc([N-]C(=O)Nc3cncc(C(F)(F)F)c3)on2)cc1 [Example 187, (3-(4-(4,6-dimethylpyrimidin-5-yl)benzyl)-1,2,3-oxadiazol-3-ium-5-yl)((5-(trifluoromethyl)pyridin-3-yl)carbamoyl)amide]
[1]
  IC50: 100 to 1000 nM
[2]
  EC50: 1000 to 20000 nM

## COc1ncc(-c2cccc(C[n+]3cc([N-]C(=O)Nc4cccc(C(F)(F)F)c4)on3)c2)cn1 [Example 53, (3-(3-(2-methoxypyrimidin-5-yl)benzyl)-1,2,3-oxadiazol-3-ium-5-yl)((3-(trifluoromethyl)phenyl)carbamoyl)amide]
[1]
  IC50: 100 to 1000 nM
[2]
  EC50: 100 to 1000 nM

## N#Cc1ncncc1-c1ccc(C[n+]2cc([N-]C(=O)Nc3cccc(C(F)(F)F)c3)on2)nc1 [Example 148, (3-((5-(4-cyanopyrimidin-5-yl)pyridin-2-yl)methyl)-1,2,3-oxadiazol-3-ium-5-yl)((3-(trifluoromethyl)phenyl)carbamoyl)amide]
[1]; [3]
  IC50: < 100 nM
[2]
  EC50: 100 to 1000 nM

## O=C([N-]c1c[n+](Cc2ccc(-c3ccnnc3)cc2)no1)Nc1cccc(C(F)(F)F)c1 [Example 61, (3-(4-(pyridazin-4-yl)benzyl)-1,2,3-oxadiazol-3-ium-5-yl)((3-(trifluoromethyl)phenyl)carbamoyl)amide]
[1]; [3]
  IC50: < 100 nM
[2]
  EC50: < 100 nM

## O=C([N-]c1c[n+](Cc2ccc(-c3c(Cl)ncnc3Cl)cn2)no1)Nc1cccc(C(F)(F)F)c1 [Example 180, (3-((5-(4,6-dichloropyrimidin-5-yl)pyridin-2-yl)methyl)-1,2,3-oxadiazol-3-ium-5-yl)((3-(trifluoromethyl)phenyl)carbamoyl)amide]
[1]; [3]
  IC50: < 100 nM
[2]
  EC50: 1000 to 20000 nM
